Experimental findings from PubChem BioAssay (NCI) are described below.

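Cells were grown in 96-well plates and exposed to each compound for 48 hours at five concentrations; endpoints were interpolated linearly between bracketing concentrations, or set to the highest concentration if not reached. GI50 is the concentration that inhibits growth by half. The concentration for full growth arrest is given as TGI.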

Some test systems named below: HCT-116 colon; MDA-MB-231 breast; NCI/ADR-RES ovarian; OVCAR-5 ovarian; SF-268 CNS; SK-MEL-28 melanoma; SK-MEL-5 melanoma; TK-10 renal; UACC-62 melanoma; SR leukemia.
Common to all, as to assay: NCI anticancer screen, dose series, 48 h

For `O=C1OCC(c2ccc(O)c(O)c2)=C1c1cc(O)c(O)c(O)c1`, the GI50 is 18.1 µM in the test on HCT-116 colon; 15.2 µM with MDA-MB-231 breast; 0.0297 µM in the test with NCI/ADR-RES ovarian; 17.7 µM in the test with OVCAR-5 ovarian; 63.7 µM in the test on SF-268 CNS; 38.5 µM in the test with SK-MEL-28 melanoma. Also, the GI50 was 38.2 µM in the test on SK-MEL-5 melanoma, 73.1 µM in the test on TK-10 renal and 52.7 µM in the test on UACC-62 melanoma. Besides, the TGI is 35.5 µM with HCT-116 colon; 31 µM in the test on MDA-MB-231 breast; 18.8 µM in the test on NCI/ADR-RES ovarian; 34.6 µM in the test with OVCAR-5 ovarian; over 100 µM in the test with SF-268 CNS; over 100 µM with SK-MEL-28 melanoma. In addition, the TGI in the test with SK-MEL-5 melanoma, in the test on TK-10 renal and in the test with UACC-62 melanoma was over 100 µM in each case.
For the molecule `CC(C)C1CN1CC(O)Cn1ccnc1[N+](=O)[O-]` (configuration not stated), the TGI in the test with HCT-116 colon, with MDA-MB-231 breast, in the test on NCI/ADR-RES ovarian, with OVCAR-5 ovarian, in the test with SF-268 CNS and in the test with SK-MEL-28 melanoma was over 100 µM in each case. Also, the TGI with SK-MEL-5 melanoma, in the test with TK-10 renal and in the test on UACC-62 melanoma was over 100 µM in each case.
As to `CCC(=O)Sc1ccccc1C(=O)Nc1ccc(Cl)cc1`, the GI50 in the test on HCT-116 colon was 3.58 µM; in the test on MDA-MB-231 breast it was 11.2 µM; in the test with NCI/ADR-RES ovarian, 6.45 µM; in the test with OVCAR-5 ovarian, 15.9 µM; with SF-268 CNS, 9.67 µM; with SK-MEL-28 melanoma, 9.33 µM. The figures for the GI50 in the test on SK-MEL-5 melanoma, in the test on TK-10 renal and in the test with UACC-62 melanoma were 4.22 µM, 22.9 µM and 4.38 µM, respectively. The TGI with HCT-116 colon worked out at 13.1 µM; with MDA-MB-231 breast, 45.7 µM; in the test with NCI/ADR-RES ovarian, 38 µM; in the test with OVCAR-5 ovarian it was 33.2 µM; with SF-268 CNS, 52.9 µM; in the test on SK-MEL-28 melanoma it was 57.7 µM. The results for the TGI in the test on SK-MEL-5 melanoma, in the test with TK-10 renal and in the test on UACC-62 melanoma were 17.4 µM, 76.9 µM and 24.3 µM, respectively.
For `COc1ccc(C(CC(=O)c2ccccc2)C(C(=O)c2ccccc2)C(c2ccc(OC)cc2)C2C(=O)NC(=O)NC2=O)cc1` (configuration not stated), the GI50 is 14.2 µM with HCT-116 colon; 2.24 µM with MDA-MB-231 breast; 22.2 µM in the test with NCI/ADR-RES ovarian; 17.4 µM in the test on OVCAR-5 ovarian; 12.8 µM with SF-268 CNS; 23.7 µM in the test with SK-MEL-28 melanoma. The GI50 is 12.5 µM with SK-MEL-5 melanoma, 43.2 µM in the test on TK-10 renal and 16.2 µM with UACC-62 melanoma. In addition, the TGI in the test on HCT-116 colon is 35.9 µM; in the test on MDA-MB-231 breast, 16.2 µM; with NCI/ADR-RES ovarian it was 63.7 µM; with OVCAR-5 ovarian it was 56.8 µM; in the test on SF-268 CNS, 75.4 µM; in the test on SK-MEL-28 melanoma, over 100 µM. For the same molecule, the TGI in the test with SK-MEL-5 melanoma is 31.8 µM; in the test with TK-10 renal, over 100 µM; in the test with UACC-62 melanoma, 48.9 µM.
On to `C=CC1CC12C(=O)C1OC2(C)C2C(=O)c3ccccc3C(=O)C12` (configuration not stated), for which the GI50 in the test on HCT-116 colon is over 100 µM; in the test on MDA-MB-231 breast, 24.8 µM; in the test on NCI/ADR-RES ovarian, over 43.6 µM; in the test with OVCAR-5 ovarian it was over 54.7 µM; in the test on SF-268 CNS, over 54 µM; with SK-MEL-28 melanoma, over 71 µM. Moreover, the GI50 with SK-MEL-5 melanoma was 18.7 µM; with TK-10 renal, over 49.9 µM; in the test with UACC-62 melanoma, 35.1 µM. The TGI was over 100 µM in the test on HCT-116 colon; over 100 µM in the test on MDA-MB-231 breast; over 70.9 µM with NCI/ADR-RES ovarian; over 88.5 µM in the test with OVCAR-5 ovarian; over 92.5 µM in the test with SF-268 CNS; over 100 µM with SK-MEL-28 melanoma. In addition, the values for the TGI in the test on SK-MEL-5 melanoma, in the test with TK-10 renal and in the test on UACC-62 melanoma were 54.7 µM, over 100 µM and over 100 µM, respectively.
Consider `O=C1Nc2ccc(Cl)cc2/C1=C\c1c(-c2ccc(F)cc2)nc2ccccn12`, for which the GI50 is 3.5 µM with MDA-MB-231 breast; 2.3 µM in the test with NCI/ADR-RES ovarian; 2.21 µM in the test on OVCAR-5 ovarian; 2.34 µM with SF-268 CNS; 3.33 µM in the test on SK-MEL-28 melanoma; 2.38 µM in the test with SK-MEL-5 melanoma. Moreover, the GI50 in the test with SR leukemia is 2.92 µM; in the test with TK-10 renal, 2.95 µM; in the test on UACC-62 melanoma, 2.58 µM. Further, the TGI with MDA-MB-231 breast came out at 36.6 µM; in the test with NCI/ADR-RES ovarian, 7.06 µM; in the test on OVCAR-5 ovarian, 6.72 µM; with SF-268 CNS, 6.04 µM; in the test with SK-MEL-28 melanoma, 15.3 µM; in the test with SK-MEL-5 melanoma, 7.45 µM. Moreover, the TGI in the test with SR leukemia was over 100 µM; with TK-10 renal, 7.39 µM; in the test with UACC-62 melanoma, 11.5 µM.
Regarding `Nc1ccccc1C#C/C=C\C#Cc1ccc(F)cc1F`, the GI50 in the test with HCT-116 colon was 15.4 µM; in the test with MDA-MB-231 breast, 15.1 µM; in the test with NCI/ADR-RES ovarian, 6.22 µM; in the test on OVCAR-5 ovarian it was 14.8 µM; in the test on SF-268 CNS, 5.95 µM; with SK-MEL-28 melanoma it was 27 µM. The GI50 with SK-MEL-5 melanoma was 9.69 µM; with TK-10 renal, 11.2 µM; with UACC-62 melanoma, 14.6 µM. The TGI in the test on HCT-116 colon came to 31.4 µM; with MDA-MB-231 breast, 33.3 µM; in the test with NCI/ADR-RES ovarian it was 21.1 µM; with OVCAR-5 ovarian, 29.6 µM; in the test with SF-268 CNS it was 25.4 µM; with SK-MEL-28 melanoma, 90.1 µM. The figures for the TGI with SK-MEL-5 melanoma, with TK-10 renal and in the test with UACC-62 melanoma were 25.3 µM, 30.4 µM and 32.5 µM, respectively.
